Results on 14 compounds are retold here after patent US20240360126A1, “PYRAZOLO[3,4-B]PYRIDINE COMPOUNDS FOR THE TREATMENT OF AUTOIMMUNE DISEASE” (Hoffmann-La Roche Inc., priority 2021, published 2024).

Molecules are shown by their SMILES.

The experiment has as its target T1, TLR9 (Homo sapiens, UniProt Q9NR96).
T1 sequence (Q9NR96 26-1032): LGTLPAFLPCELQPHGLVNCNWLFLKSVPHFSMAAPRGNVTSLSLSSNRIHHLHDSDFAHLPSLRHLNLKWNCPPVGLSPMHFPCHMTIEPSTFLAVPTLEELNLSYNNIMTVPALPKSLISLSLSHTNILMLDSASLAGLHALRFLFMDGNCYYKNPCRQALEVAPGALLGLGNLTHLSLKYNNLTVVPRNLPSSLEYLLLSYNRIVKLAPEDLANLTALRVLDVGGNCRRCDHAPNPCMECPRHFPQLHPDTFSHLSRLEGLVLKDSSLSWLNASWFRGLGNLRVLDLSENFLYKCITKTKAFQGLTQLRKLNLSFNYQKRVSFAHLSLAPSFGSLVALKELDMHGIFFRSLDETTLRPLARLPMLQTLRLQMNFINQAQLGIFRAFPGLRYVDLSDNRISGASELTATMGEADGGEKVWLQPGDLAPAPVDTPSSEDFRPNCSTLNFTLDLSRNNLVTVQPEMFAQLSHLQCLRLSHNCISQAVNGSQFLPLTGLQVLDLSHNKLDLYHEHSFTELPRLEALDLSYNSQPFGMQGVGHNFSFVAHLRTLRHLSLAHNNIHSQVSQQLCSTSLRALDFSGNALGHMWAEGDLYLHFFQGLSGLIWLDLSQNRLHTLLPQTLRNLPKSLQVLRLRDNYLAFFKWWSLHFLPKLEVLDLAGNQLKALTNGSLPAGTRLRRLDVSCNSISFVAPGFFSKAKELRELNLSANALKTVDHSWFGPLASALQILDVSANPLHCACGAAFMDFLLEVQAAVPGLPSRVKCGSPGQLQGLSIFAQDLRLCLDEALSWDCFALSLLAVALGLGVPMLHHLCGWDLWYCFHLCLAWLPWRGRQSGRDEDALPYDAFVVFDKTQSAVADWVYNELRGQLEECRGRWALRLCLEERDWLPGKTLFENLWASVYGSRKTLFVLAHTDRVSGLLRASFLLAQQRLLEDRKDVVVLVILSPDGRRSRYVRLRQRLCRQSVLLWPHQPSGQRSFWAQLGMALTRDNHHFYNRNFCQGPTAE
As to the kind of experiment: HEK293-Blue-hTLR-9 cells assay. In kind it is cell-based. Also noted: host or cells: HEK293 (HEK-Blue hTLR9). The note with it: HEK293-Blue-hTLR9 cells, ODN2006 stimulation, 20 hrs; read-out: HEK/hTLR9 IC50. The source says:
A stable HEK293-Blue-hTLR-9 cell line was purchased from InvivoGen (Cat. #: hkb-htlr9, San Diego, California, USA). These cells were originally designed for studying the stimulation of human TLR9 by monitoring the activation of NF-κB. A SEAP (secreted embryonic alkaline phosphatase) reporter gene was placed under the control of the IFN-β minimal promoter fused to five NF-κB and AP-1-binding sites. The SEAP was induced by activating NF-κB and AP-1 via stimulating HEK-Blue hTLR9 cells with TLR9 ligands. Therefore the reporter expression was declined by TLR9 antagonist under the stimulation of a ligand, such as ODN2006 (Cat. #: tlrl-2006-1, Invivogen, San Diego, California, USA), for incubation of 20 hrs. The cell culture supernatant SEAP reporter activity was determined using QiANTI-Blue™ kit (Cat. #: rep-qbl, Invivogen, San Diego, California, USA) at a wavelength of 640 nm, a detection medium that turns purple or blue in the presence of alkaline phosphatase.
HEK293-Blue-hTLR9 cells were incubated at a density of 250,000-450,000 cells/mL in a volume of 170 μL in a 96-well plate in Dulbecco's Modified Eagle's medium (DMEM) containing 4.5 g/L glucose, 50 U/mL penicillin, […], […], 10% (v/v) heat-inactivated fetal bovine serum with addition of 20 μL test compound in a serial dilution in the presence of final DMSO at 1% and 10 μL of 20 μM ODN2006 in above DMEM, perform incubation under 37° C. in a C02 incubator for 20 hrs. Then 20 μL of the supernatant from each well was incubated with 180 μl. Quanti-blue substrate solution at 37° C. for 2 h and the absorbance was read at 620˜655 nm using a spectrophotometer. The signaling pathway that TLR9 activation leads to downstream NF-κB activation has been widely accepted, and therefore similar reporter assay was modified for evaluating TLR9 antagonist.
For `Cc1cc(N2CC[C@@H](c3ncc(N4CCOC[C@@H](N)C4)cc3C)[C@H](C)C2)c2cnn(C)c2n1` [Example 28, (6S)-4-[6-[(3S,4R)-1-(1,6-dimethylpyrazolo[3,4-b]pyridin-4-yl)-3-methyl-4-piperidyl]-5-methyl-3-pyridyl]-1,4-oxazepan-6-amine], the IC50 was 126 nM. For `COC[C@H]1CN(c2cnc([C@@H]3CCN(c4cc(C)nc5c4cnn5C)C[C@H]3C)c(C)c2)CCN1` [Example 29, 4-[(3S,4R)-4-[5-[(3R)-3-(methoxymethyl)piperazin-1-yl]-3-methyl-2-pyridyl]-3-methyl-1-piperidyl]-1,6-dimethyl-pyrazolo[3,4-b]pyridine], the IC50 was found to be 238 nM. In the case of `Cc1cc(N2CC[C@@H](c3ncc(N4CC[C@@H](N)[C@H](F)C4)cc3C)[C@H](C)C2)c2cnn(C)c2n1` [Example 31, (3R,4R)-1-[6-[(3S,4R)-1-(1,6-dimethylpyrazolo[3,4-b]pyridin-4-yl)-3-methyl-4-piperidyl]-5-methyl-3-pyridyl]-3-fluoro-piperidin-4-amine], the IC50 came to 219 nM. As to `Cc1cc(N2CC[C@@H](c3ncc(N4CC(C)(N)C4)cc3C)[C@H](C)C2)c2cnn(C)c2n1` [Example 32, 1-[6-[(3S,4R)-1-(1,6-dimethylpyrazolo[3,4-b]pyridin-4-yl)-3-methyl-4-piperidyl]-5-methyl-3-pyridyl]-3-methyl-azetidin-3-amine], the IC50 amounted to 186 nM. For `Cc1cc(N2CC[C@@H](c3ncc(N4C[C@H]5NCCO[C@@H]5C4)cc3C)[C@H](C)C2)c2cnn(C)c2n1` [Example 33, (4aR,7aR)-6-[6-[(3S,4R)-1-(1,6-dimethylpyrazolo[3,4-b]pyridin-4-yl)-3-methyl-4-piperidyl]-5-methyl-3-pyridyl]-3,4,4a,5,7,7a-hexahydro-2H-pyrrolo[3,4-b][1,4]oxazine], the IC50 worked out at 79 nM. Consider `Cc1cc(N2CC[C@@H](c3ccc(N4CCNCC4)cn3)[C@H](C)C2)c2cnn(C)c2n1` [Example 34, 1,6-dimethyl-4-[(3S,4R)-3-methyl-4-(5-piperazin-1-yl-2-pyridyl)-1-piperidyl]pyrazolo[3,4-b]pyridine], for which the IC50 worked out at 165 nM. `Cc1cc(N2CC[C@H](c3ccc(N4CCNCC4)cn3)[C@@H](C)C2)c2cnn(C)c2n1` [Example 35, 1,6-dimethyl-4-[(3R,4S)-3-methyl-4-(5-piperazin-1-yl-2-pyridyl)-1-piperidyl]pyrazolo[3,4-b]pyridine]: the IC50 worked out at 158 nM. Consider `CO[C@@H]1CN(c2ccc([C@H]3CCN(c4cc(C)nc5c4cnn5C)C[C@@H]3C)nc2)C[C@H]1N` [Example 36, (3R,4R)-1-[6-[(3R,4S)-1-(1,6-dimethylpyrazolo[3,4-b]pyridin-4-yl)-3-methyl-4-piperidyl]-3-pyridyl]-4-methoxy-pyrrolidin-3-amine], for which the IC50 is 170 nM. On to `COC[C@H]1CN(c2ccc([C@H]3CCN(c4cc(C)nc5c4cnn5C)C[C@@H]3C)nc2)CCN1` [Example 37, 4-[(3R,4S)-4-[5-[(3R)-3-(methoxymethyl)piperazin-1-yl]-2-pyridyl]-3-methyl-1-piperidyl]-1,6-dimethyl-pyrazolo[3,4-b]pyridine], for which the IC50 was 332 nM.

For the compound `Cc1cc(N2CC[C@H](c3ccc(N4CC5(CNCCO5)C4)cn3)[C@@H](C)C2)c2cnn(C)c2n1` [Example 38, 2-[6-[(3R,4S)-1-(1,6-dimethylpyrazolo[3,4-b]pyridin-4-yl)-3-methyl-4-piperidyl]-3-pyridyl]-5-oxa-2,8-diazaspiro[3.5]nonane], the IC50 amounted to 192 nM.

On to `CO[C@H]1CN(c2ccc([C@H]3CCN(c4cc(C)nc5c4cnn5C)C[C@@H]3C)nc2)CC[C@@H]1N` [Example 39, (3S,4S)-1-[6-[(3R,4S)-1-(1,6-dimethylpyrazolo[3,4-b]pyridin-4-yl)-3-methyl-4-piperidyl]-3-pyridyl]-3-methoxy-piperidin-4-amine], for which the IC50 turned out to be 211 nM.

As to `Cc1cc(N2CC[C@H](c3ccc(N4CCOC[C@@H](N)C4)cn3)[C@@H](C)C2)c2cnn(C)c2n1` [Example 40, (6S)-4-[6-[(3R,4S)-1-(1,6-dimethylpyrazolo[3,4-b]pyridin-4-yl)-3-methyl-4-piperidyl]-3-pyridyl]-1,4-oxazepan-6-amine], the IC50 was 173 nM. Take `Cc1cc(N2CC[C@H](c3ccc(N4CC[C@@H](N)[C@H](F)C4)cn3)[C@@H](C)C2)c2cnn(C)c2n1` [Example 41, (3R,4R)-1-[6-[(3R,4S)-1-(1,6-dimethylpyrazolo[3,4-b]pyridin-4-yl)-3-methyl-4-piperidyl]-3-pyridyl]-3-fluoro-piperidin-4-amine]: the IC50 turned out to be 231 nM. With `Cc1cc(N2CC[C@H](c3ccc(N4CC(C)(N)C4)cn3)[C@@H](C)C2)c2cnn(C)c2n1` [Example 43, 1-[6-[(3R,4S)-1-(1,6-dimethylpyrazolo[3,4-b]pyridin-4-yl)-3-methyl-4-piperidyl]-3-pyridyl]-3-methyl-azetidin-3-amine], the IC50 was 203 nM.
